Test results taken from US11278587B2 (9 METERS BIOPHARMA, INC., priority 2018, dated 2022).
Ends that are not written are not given here.

System: MCA205 fibrosarcoma cells
Experiment: MCA205 subcutaneous model, tumor growth kinetics
Type: in vivo, C57BL/6 mice
Conditions: larazotide 2 days per week with anti-PD1 antibody i.p. at 3 day intervals

Question: Which “enhancement of anti-PD1 effect on MCA205 tumor progression” value does the source give for GGVLVQPG [larazotide] here?
Answer: did not appear to enhance this effect
